Assay results published in PubChem BioAssay (NCI).
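Each compound was tested at five concentrations against cells in 96-well plates for 48 hours. At the GI50, growth is halved. TGI denotes the concentration required for complete inhibition of growth.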

How the values were obtained:
Assay in all cases: inhibition of tumour cell growth, NCI panel, 48 h
SK-MEL-5 melanoma = tested on: SK-MEL-5 melanoma
HCT-116 colon = tested on: HCT-116 colon
HOP-92 NSCLC = tested on: HOP-92 NSCLC
A549 NSCLC = tested on: A549 NSCLC
SF-539 CNS = tested on: SF-539 CNS
MCF7 breast = tested on: MCF7 breast
MDA-MB-231 breast = tested on: MDA-MB-231 breast
RPMI-8226 leukemia = tested on: RPMI-8226 leukemia
T-47D breast = tested on: T-47D breast
CAKI-1 renal = tested on: CAKI-1 renal
MDA-MB-435 = tested on: MDA-MB-435
HS 578T breast = tested on: HS 578T breast

C1CCC(OCc2nnn3c2CCC3)OC1 (centres undefined)
TGI (SK-MEL-5 melanoma): > 100 µM
TGI (HCT-116 colon): > 100 µM
TGI (HOP-92 NSCLC): > 100 µM
TGI (A549 NSCLC): > 100 µM
TGI (SF-539 CNS): > 100 µM

Cc1ccc(S(=O)(=O)N2c3ccccc3[C@H]3CCc4c([nH]c5ccccc45)[C@H]32)cc1
TGI (SK-MEL-5 melanoma): > 100 µM
TGI (MCF7 breast): > 100 µM
TGI (HCT-116 colon): > 100 µM
TGI (MDA-MB-231 breast): > 100 µM
TGI (HOP-92 NSCLC): > 100 µM
TGI (A549 NSCLC): > 100 µM
TGI (RPMI-8226 leukemia): > 100 µM
TGI (T-47D breast): > 100 µM
TGI (CAKI-1 renal): > 100 µM
TGI (SF-539 CNS): > 100 µM
TGI (MDA-MB-435): > 100 µM

CC(C)OC(=O)Nc1cccc(Cl)c1
TGI (HS 578T breast): > 100 µM
TGI (SK-MEL-5 melanoma): > 100 µM
TGI (MCF7 breast): > 100 µM
TGI (HCT-116 colon): > 100 µM
TGI (MDA-MB-231 breast): > 100 µM
TGI (HOP-92 NSCLC): > 100 µM
TGI (A549 NSCLC): > 100 µM
TGI (RPMI-8226 leukemia): > 100 µM
TGI (T-47D breast): > 100 µM
TGI (CAKI-1 renal): > 100 µM
TGI (SF-539 CNS): > 100 µM
TGI (MDA-MB-435): > 100 µM

Nc1nc(Cl)cc(NCCCNc2cc(Cl)nc(N)n2)n1
TGI (SK-MEL-5 melanoma): > 100 µM
TGI (HCT-116 colon): > 100 µM
TGI (HOP-92 NSCLC): > 100 µM
TGI (A549 NSCLC): > 100 µM
TGI (RPMI-8226 leukemia): > 100 µM
TGI (SF-539 CNS): > 100 µM

Cn1cc(-c2csc(-c3cn(C)c4ccc(Br)cc34)n2)c2cnccc21
GI50 (HS 578T breast): 2.23 µM
TGI (HS 578T breast): 4.73 µM
GI50 (SK-MEL-5 melanoma): 1.7 µM
TGI (SK-MEL-5 melanoma): 3.09 µM
GI50 (MCF7 breast): 1.78 µM
TGI (MCF7 breast): 3.43 µM
GI50 (MDA-MB-231 breast): 1.66 µM
TGI (MDA-MB-231 breast): 3.09 µM
GI50 (A549 NSCLC): 1.83 µM
TGI (A549 NSCLC): 3.48 µM
GI50 (CAKI-1 renal): 1.77 µM
TGI (CAKI-1 renal): 3.22 µM
GI50 (SF-539 CNS): 1.8 µM
TGI (SF-539 CNS): 3.23 µM
GI50 (MDA-MB-435): 1.76 µM
TGI (MDA-MB-435): 3.22 µM

CS/C(C#N)=C(\C#N)SC
TGI (HS 578T breast): > 100 µM
TGI (SK-MEL-5 melanoma): 49.1 µM
TGI (MCF7 breast): 12.3 µM
TGI (HCT-116 colon): > 100 µM
TGI (MDA-MB-231 breast): 89.6 µM
TGI (A549 NSCLC): > 100 µM
TGI (RPMI-8226 leukemia): > 100 µM
TGI (T-47D breast): 26.2 µM
TGI (CAKI-1 renal): 22.3 µM
TGI (SF-539 CNS): 34.1 µM
TGI (MDA-MB-435): 40.5 µM

c1ccc(CSC2(SCc3ccccc3)CCCC2)cc1
TGI (HS 578T breast): > 10 µM
TGI (SK-MEL-5 melanoma): > 10 µM
TGI (MCF7 breast): > 10 µM
TGI (HCT-116 colon): > 10 µM
TGI (MDA-MB-231 breast): > 10 µM
TGI (A549 NSCLC): > 10 µM
TGI (RPMI-8226 leukemia): > 10 µM
TGI (T-47D breast): > 10 µM
TGI (CAKI-1 renal): > 10 µM
TGI (SF-539 CNS): > 10 µM
TGI (MDA-MB-435): > 10 µM

CN1C(=O)CN2C(Cl)(Cl)C2(c2ccccc2F)c2cc([N+](=O)[O-])ccc21 (centres undefined)
TGI (SK-MEL-5 melanoma): > 100 µM
TGI (HCT-116 colon): > 100 µM
TGI (HOP-92 NSCLC): 91.4 µM
TGI (RPMI-8226 leukemia): > 100 µM
TGI (CAKI-1 renal): > 100 µM

CC(N)C(=O)OCN1C(=O)C2C3C=CC(C2C1=O)C1C2C(=O)N(COC(=O)C(C)N)C(=O)C2C31 (centres undefined)
TGI (SK-MEL-5 melanoma): 34.1 µM
TGI (HCT-116 colon): 44.9 µM
TGI (HOP-92 NSCLC): > 100 µM
TGI (A549 NSCLC): 77.7 µM
TGI (RPMI-8226 leukemia): 54.9 µM
TGI (CAKI-1 renal): > 100 µM
TGI (SF-539 CNS): 47.2 µM

Cc1cccc(O)c1-c1nnc(CCCCCCCCc2nnc(-c3c(C)cccc3O)n2N)n1N
TGI (HS 578T breast): > 100 µM
TGI (SK-MEL-5 melanoma): > 100 µM
TGI (MCF7 breast): > 100 µM
TGI (HCT-116 colon): > 100 µM
TGI (MDA-MB-231 breast): > 100 µM
TGI (HOP-92 NSCLC): > 31.6 µM
TGI (A549 NSCLC): > 100 µM
TGI (RPMI-8226 leukemia): > 100 µM
TGI (T-47D breast): > 100 µM
TGI (CAKI-1 renal): > 100 µM
TGI (SF-539 CNS): > 100 µM
TGI (MDA-MB-435): > 100 µM

O=c1oc2ccccc2n1P(=O)(n1c(=O)oc2ccccc21)n1c(=O)oc2ccccc21
TGI (HCT-116 colon): > 100 µM
TGI (HOP-92 NSCLC): > 100 µM
TGI (A549 NSCLC): > 100 µM
TGI (CAKI-1 renal): > 100 µM
TGI (SF-539 CNS): > 100 µM

C[C@H]1C(=O)O[C@@H]1[C@H]1COC(C)(C)O1
TGI (MCF7 breast): > 100 µM
TGI (MDA-MB-231 breast): > 100 µM
TGI (HOP-92 NSCLC): > 100 µM
TGI (A549 NSCLC): > 100 µM
TGI (RPMI-8226 leukemia): > 100 µM
TGI (CAKI-1 renal): > 100 µM
TGI (SF-539 CNS): > 100 µM
TGI (MDA-MB-435): > 100 µM

NC(=O)c1ccc(NS(=O)(=O)c2ccc(N)cc2)nc1
TGI (HS 578T breast): > 100 µM
TGI (SK-MEL-5 melanoma): > 100 µM
TGI (MCF7 breast): > 100 µM
TGI (HCT-116 colon): > 100 µM
TGI (MDA-MB-231 breast): > 100 µM
TGI (HOP-92 NSCLC): > 100 µM
TGI (RPMI-8226 leukemia): > 100 µM
TGI (T-47D breast): > 100 µM
TGI (CAKI-1 renal): > 100 µM
TGI (MDA-MB-435): > 100 µM
